# Measured values from patent publication US20230067811A1, “MODULATING LYMPHATIC VESSELS IN NEUROLOGICAL DISEASE” (University of Virginia Patent Foundation, priority 2020, published 2023).
# Experiments:
# [1] = tested on: 5×FAD mice; experiment: ABETA Mab1 i.p. in 5×FAD mice with intact or ablated meningeal lymphatics: Aβ plaques, LAMP1, IBA1, CD68, fibrinogen; assay type: in vivo, mouse
# Description: Upon recovery, mice received intraperitoneal (i.p.) injections of ABETA Mab1 (a murine antibody against Aβ protofibrils) or the control murine IgG (mIgG) antibodies, each at a dose of 40 mg/kg. Antibodies were injected weekly for a total of four weeks. Additional steps of meningeal lymphatic vessel ablation or control interventions were followed by four weekly injections with antibodies. Mice were tested in the open field and Morris water maze.
# In another set of experiment 5×FAD mice of 3-3.5 months-old were injected (i.p.) with anti-Abeta antibody (ABETA Mab1) or mIgG (each at 40 mg/kg) following the exact same treatment regimen (FIG. 10A).
# Treatments with anti-Aβ monoclonal antibodies. ABETA Mab1 and respective control IgG2a (mIgG) antibodies were manufactured by Absolute Antibody Ltd., Oxford Centre for Innovation, United Kingdom. Anti-Aβ monoclonal antibodies and respective mIgG controls were administered via intraperitoneal (i.p.) injection, at a dose of 40 mg/kg. Antibody dosages are also specified in the main text, illustrated in schemes and in each figure legend. Alternatively, ABETA Mab1 and mIgG antibodies were injected directly into the CSF, following the methodology described in the next section.
# Meningeal lymphatic vessel ablation. Selective ablation of the meningeal lymphatic vessels was achieved by injection of Visudyne (Vis.) and consecutive transcranial photoconversion (photo.) steps following previously described methodology and regimens (Da Mesquita, S. et al. Functional aspects of meningeal lymphatics in ageing and Alzheimer's disease. Nature 560, 185-191, (2018); Louveau, A. et al. CNS lymphatic drainage and neuroinflammation are regulated by meningeal lymphatic vasculature. Nat Neurosci 21, 1380-1391, (2018)). Visudyne was reconstituted following manufacturer instructions, aliquoted and kept at −20° C. until further used. […] Each spot was irradiated with a light dose of 50 J/cm^2 at an intensity of 600 mW/cm^2 for a total of 83 s. […]
# Immunohistochemistry, imaging and quantifications. […]
# [2] = tested on: WT mice; experiment: In vivo measurement of CSF outflow into dCLNs (fluorescent microspheres); set-up: species or system mouse; conditions: 1 week after photoablation
# Description: Adult 2 months-old WT mice were injected (i.c.m.) with Visudyne (5 μL) followed by a transcranial photoconversion step (Vis./photo.) to ablate meningeal lymphatic vessels. Control mice were injected with Visudyne without photoconversion (Vis.). One week later, mice were injected with 5 μL of a suspension of fluorescent microspheres (1 μm in diameter) into the CSF and 15 minutes later the lymphatic vessel afferent to the deep cervical lymph node (dCLN) was imaged by in vivo stereomicroscopy. Representative images of skull cap show microspheres and lymphatic vessels stained for LYVE-1 around the confluence of sinuses (COS) and transverse sinus (TS) at the dorsal brain meninges or around the sigmoid (SS) and petrosquamosal (PSS) sinuses at the basal brain meninges (scale bars, 500 μm). […]
# In vivo measurement of CSF outflow into dCLNs. […] Fluorescent microsphere drainage was analyzed in FIJI software by drawing a line demarcating the draining lymphatic vessel afferent to the dCLN and manually counting the beads passing the line by a blinded experimenter. […]
# [3] = 5×FAD mice with reduced meningeal lymphatic drainage
substance,measurement,setting,value
verteporfin [Visudyne],brain coverage by LAMP1+ dystrophic neurites,[1]; 5×FAD mice with dysfunctional versus intact meningeal lymphatics,significantly increased
same,fibrinogen levels in the brain,[1]; [3],increased fibrinogen levels
same,"myeloid cell activation (IBA1+ coverage, peri-Aβ plaque IBA1+ cells, CD68 on IBA1+ cells)",[1]; [3],aberrant activation of myeloid cells
same,CSF drainage (microspheres from the CSF into the dCLNs),[2],significant reduction
